Experimental data taken from patent US20150065693A1, “COMPOSITION FOR PROPHYLAXIS OR TREATMENT OF VASCULAR OR CARDIAC VALVULAR CALCIFICATION COMPRISING DIPEPTIDYL PEPTIDASE-4 INHIBITOR” (THE ASAN FOUNDATION, priority 2013, published 2015).

Tests used:
[1] = test system: calcification of the cardioaorta; assay: In vivo calcium deposition in the cardioaorta by Osteosense fluorescence; conditions: control and eNOS KO transgenic mice, FIG. 11
Protocol: To determine whether the calcification of the cardioaorta decreased by the CD26 inhibitor, a CD26 inhibitor drug, DPPIV inhibitor sitagliptin, was administered to the control and the eNOS KO transgenic mice. Thereafter, the intensity of fluorescence was monitored by injecting Osteosense into the mice to check the in vivo calcium deposition. In FIG. 11, the red intensity of fluorescence represents a level of calcification.

[2] = test system: vascular smooth muscle cells from the eNOS KO mice; assay: Osteogenic differentiation of vascular smooth muscle cells (ALP, AR, VK staining); format: cell-based; conditions: FIG. 10B
Protocol: The aorta extracted with the heart was washed with a serum-free M199 medium (Cellgro), and cut into small pieces. Thereafter, 20% fetal calf serum, and 3 mg/mL collagenase (Sigma) were added to the M199 medium, and […] for 3 hours in a 37° C. water bath. Then, it was confirmed that the separated cells were vascular smooth muscle cells using an α-SM actin monoclonal antibody (Sigma). The separated vascular smooth muscle cells were divided at a 30% concentration, and the medium used was replaced with osteogenic medium (Osteogenic Basal Medium, Osteogenic SingleQuots, Lonza, USA) after 24 hours. The medium was replaced every 3 days, and the cell culture was performed for 28 days. The concentration of sCD26/DPP-4 was measured upon medium replacement.
For the wild-type mice and eNOS KO mice, it was determined whether the promotion of ossification of vascular smooth muscle cells was induced by CD26 using an ALP staining method as a staining method used at the initial calcification stage, an AR staining method as a staining method used at the middle calcification stage, and a VK staining method as a staining method used at the late calcification stage.
Also, the vascular smooth muscle cells from the eNOS KO mice were treated with CD26 and a CD26 inhibitor, diprotin A, respectively.

CD26/DPP-4 mRNA = CD26/DPP-4 mRNA expression by RT-PCR in vascular smooth muscle cells; format: cell-based, mice; conditions: extent in proportion to the concentration of DETA-NO, FIG. 4

## N[C@@H](CC(=O)N1CCn2c(nnc2C(F)(F)F)C1)Cc1cc(F)c(F)cc1F [sitagliptin]
[1]
  calcification in the cardioaorta: slowly proceeded

## diprotin A
[2]
  osteogenic differentiation: inhibited

## NCCN(CCN)/[N+]([O-])=N/O [DETA-NO]
CD26/DPP-4 mRNA
  expression of the CD26/DPP-4 mRNA: decreased
